Reference: US7429578B2, “Tricyclic inhibitors of poly(ADP-ribose) polymerases” (Agouron Pharmaceuticals, Inc., priority 1999, dated 2008)
Where “and” joins values, the source holds several entries; their conditions need not be identical. Identical values can stand only once.

What was measured:
A549 cells = test: Cytotoxicity potentiation assay (topotecan); type: cell-based; conditions: test compound at 0.4 μM, ratio of IC50 of topotecan alone to IC50 of topotecan with test compound
purified PARP protein = purified PARP protein (Homo sapiens, UniProt P09874); test: PARP enzyme inhibition assay; type: biochemical; conditions: [32P]NAD+ incorporation, 500 μM NAD+, 25° C.; two values in a cell = tested twice; read-out: Inhibition Constant Ki
Chain of purified PARP protein (P09874 whole entry): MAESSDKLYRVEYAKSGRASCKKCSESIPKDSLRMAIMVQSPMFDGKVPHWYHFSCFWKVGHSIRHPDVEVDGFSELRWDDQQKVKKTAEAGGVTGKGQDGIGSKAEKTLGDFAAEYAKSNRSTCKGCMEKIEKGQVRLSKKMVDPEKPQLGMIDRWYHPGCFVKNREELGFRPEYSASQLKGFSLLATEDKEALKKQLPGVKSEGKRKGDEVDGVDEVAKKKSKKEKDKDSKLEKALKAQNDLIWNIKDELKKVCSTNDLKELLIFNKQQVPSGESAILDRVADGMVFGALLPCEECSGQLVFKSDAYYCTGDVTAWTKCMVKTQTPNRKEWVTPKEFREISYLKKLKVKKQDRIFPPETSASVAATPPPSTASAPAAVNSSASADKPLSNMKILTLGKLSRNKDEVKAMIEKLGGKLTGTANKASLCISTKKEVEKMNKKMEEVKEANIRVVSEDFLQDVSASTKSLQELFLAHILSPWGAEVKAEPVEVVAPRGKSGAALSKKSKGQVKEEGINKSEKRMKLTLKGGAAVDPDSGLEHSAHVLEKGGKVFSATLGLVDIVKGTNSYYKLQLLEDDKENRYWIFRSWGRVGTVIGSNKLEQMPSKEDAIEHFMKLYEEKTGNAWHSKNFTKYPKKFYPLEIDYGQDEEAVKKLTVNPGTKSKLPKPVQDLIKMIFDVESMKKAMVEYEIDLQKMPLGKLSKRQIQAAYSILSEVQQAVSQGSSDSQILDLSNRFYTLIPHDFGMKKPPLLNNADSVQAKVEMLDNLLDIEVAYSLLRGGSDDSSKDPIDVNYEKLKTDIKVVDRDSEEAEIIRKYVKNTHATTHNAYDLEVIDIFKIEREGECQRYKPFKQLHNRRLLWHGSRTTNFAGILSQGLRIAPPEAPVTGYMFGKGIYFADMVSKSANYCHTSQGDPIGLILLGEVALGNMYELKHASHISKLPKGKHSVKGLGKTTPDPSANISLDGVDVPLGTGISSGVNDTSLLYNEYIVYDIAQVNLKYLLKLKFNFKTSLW

Ki (purified PARP protein) | melting point | Structure (SMILES) | Cytotoxicity Potentiation PF50 (A549 cells)
4.2 nM | – | O=C1NCCc2c(-c3ccccc3)[nH]c3cccc1c23 [Compound 12, 2-Phenyl-3,4,5,6-tetrahydro-1H-azepino[5,4,3-cd]indol-6-one] | 1.8
5 nM | 258 to 259 °C (dec.) | O=C1NCCc2c(-c3cccc(CO)c3)[nH]c3cccc1c23 [Compound 16, 2-(3-Hydroxymethylphenyl)-3,4,5,6-tetrahydro-1H-azepino[5,4,3-cd]indol-6-one] | 1.9
7.2 nM | 222 to 225 °C | CN(C)Cc1cccc(-c2[nH]c3cccc4c3c2CCNC4=O)c1 [Compound 22, 2-(3-(N,N-Dimethylamino)methylphenyl)-3,4,5,6-tetrahydro-1H-azepino[5,4,3-cd]indol-6-one] | 2.3
3.4 nM | – | O=C1NN=Cc2c[nH]c3cccc1c23 [Compound 27, 1,5-Dihydro-[1,2]diazepino[4,5,6-cd]-indol-6-one] | 1.3
4 nM and 3.8 nM | – | O=C1NN=C(c2ccccc2)c2c[nH]c3cccc1c23 [Compound 28, 1,5-Dihydro-3-phenyl-[1,2]diazepino[4,5,6-cd]-indol-6-one] | 1
8 nM | – | O=C1NN=C(CCc2ccccc2)c2c[nH]c3cccc1c23 [Compound 29, 1,5-Dihydro-3-phenethyl-[1,2]diazepino[4,5,6-cd]-indol-6-one] | 1
6.3 nM | 212.5 to 213.5 °C | O=C1NCCc2c(-c3cccc(C(F)(F)F)c3)[nH]c3cccc1c23 [Compound 30, 2-(3-Trifluoromethyl-phenyl)-1,3,4,5-tetrahydro-azepino[5,4,3-cd]indol-6-one] | 2.4
5.3 nM | 190 to 192 °C | CNCc1cccc(-c2[nH]c3cccc4c3c2CCNC4=O)c1 [Compound PP, 2-(3-(N-Methylamino)methylphenyl)-3,4,5,6-tetrahydro-1H-azepino[5,4,3-cd]indol-6-one] | 2.3
9.4 nM | 221.5 to 222.5 °C | CN(C)Cc1ccc(-c2[nH]c3cccc4c3c2CCNC4=O)cc1F [Compound PPP, 2-(4-Dimethylaminomethyl-3-fluoro-phenyl)-1,3,4,5-tetrahydro-azepino[5,4,3-cd]indol-6-one] | 2.1
6.3 nM | – | O=C(Nc1ccc(F)cc1)c1[nH]c2cccc3c2c1CCNC3=O [Compound YYY, 6-Oxo-3,4,5,6-tetrahydro-1H-azepino[5,4,3-cd]indole-2-carboxylic acid (4-fluorophenyl)-amide] | 1.5
4.1 nM | 250 to 252 °C | O=C1NCCc2c(-c3ccc(Cl)cc3)[nH]c3cccc1c23 [GGG, 2-(4-Chloro-phenyl)-1,3,4,5-tetrahydro-azepino[5,4,3-cd]indol-6-one] | 1.9
2.2 nM | 270 to 272 °C (dec.) | CNCc1cccc(-c2[nH]c3cc(F)cc4c3c2CCNC4=O)c1 [HHHH, 8-Fluoro-2-(3-methylaminomethyl-phenyl)-1,3,4,5-tetrahydro-azepino[5,4,3-cd]indol-6-one] | 1.9
4.4 nM | – | O=C1NCCc2c(-c3ccc(CN4CCCC4)cc3)[nH]c3cc(F)cc1c23 [JJJJ, 8-Fluoro-2-(4-pyrrolidin-1-ylmethyl-phenyl)-1,3,4,5-tetrahydro-azepino[5,4,3-cd]indol-6-one] | 2.4
9.4 nM | 228 to 229 °C (dec.) | O=C1NCCc2c(-c3ccc(CCN4CCCC4)cc3)[nH]c3cccc1c23 [MMM, 2-[4-(2-Pyrrolidin-1-yl-ethyl)-phenyl]-1,3,4,5-tetrahydro-azepino[5,4,3-cd]indol-6-one] | 2.3
4.1 nM | – | CNCc1ccc(-c2[nH]c3cccc4c3c2CCNC4=O)cc1 [OO, 2-(4-(N-Methylamino)methylphenyl)-3,4,5,6-tetrahydro-1H-azepino[5,4,3-cd]indol-6-one] | 2.4
10.2 nM | 139 to 140 °C (dec.) | O=C1NCCc2c(-c3ccc(CN4CCCC4)c(F)c3)[nH]c3cccc1c23 [QQQ, 2-(3-Fluoro-4-pyrrolidin-1-ylmethyl-phenyl)-1,3,4,5-tetrahydro-azepino[5,4,3-cd]indol-6-one] | 2.3
7.4 nM | 219 to 223 °C (dec.) | O=C1NCCc2c(-c3cccc(CN4CCCC4)c3)[nH]c3cccc1c23 [TTTT, 2-(3-Pyrrolidin-1-ylmethylphenyl)-3,4,5,6-tetrahydro-1H-azepino[5,4,3-cd]indol-6-one] | 1.6
10 nM | 240 to 241 °C | O=C1NCCc2c(-c3cccc(Oc4ccc(F)cc4)c3)[nH]c3cccc1c23 [UU, 2-[3-(4-Fluoro-phenoxy)-phenyl]-1,3,4,5-tetrahydro-azepino[5,4,3-cd]indol-6-one] | 1.8
10 nM | 277 to 279 °C (dec.) | O=C1NCCc2c(-c3ccc(-c4ccccc4)cc3)[nH]c3cccc1c23 [VV, 2-Biphenyl-4-yl-1,3,4,5-tetrahydro-azepino[5,4,3-cd]indol-6-one] | 2.0
13.2 nM | – | O=C1NCCc2c(-c3ccc(CN4CCOCC4)cc3)[nH]c3cccc1c23 [VVVV, 2-(4-Morpholin-4-ylmethylphenyl)-3,4,5,6-tetrahydro-1H-azepino[5,4,3-cd]indol-6-one] | 2.1
18 nM | – | C[N+](C)([O-])Cc1ccc(-c2[nH]c3cccc4c3c2CCNC4=O)cc1 [XXXX, 2-(4-(N,N-Dimethylamino)methylphenyl)-3,4,5,6-tetrahydro-1H-azepino[5,4,3-cd]indol-6-one, N-oxide] | 1.7
